For assay [1], the system named is Apoprotein E deficient mice. The assay is described as follows: En face analysis of atherosclerotic lesions of the thoracic aorta (Sudan IV, % of aortic surface covered by lipid). In kind it is in vivo. To be noted: 12 weeks. From the text:
(§1) Apoprotein E deficient mice (Jackson Laboratories, 600 Main Street, Bar Harbor, Me.) were used in this study. The mice were male, 7-8 weeks of age, and between 18-20 g in weight. An initial total cholesterol measurement was made on 30 mice, and the mice were grouped into two groups of 15 to match the total cholesterol measurements. Both groups were fed a “western diet” (40 kcal % butterfat, 0.15% [wt/wt] cholesterol, Harlan Teklad diet TD-88137). Starting at t=0, the control group of 15 mice received vehicle only (phosphate buffered saline at pH 7.4), while the test group of 15 mice received aromatic-cationic peptide reconstituted in phosphate buffered saline. Body weights of the mice were recorded weekly, and mortality checks were performed daily.
The aromatic-cationic peptide D-Arg-2′6′-Dmt-Lys-Phe-NH2 (sterile lyophilized powder, reconstituted in phosphate buffered saline) was tested. For the 12-week study, test mice received a single, daily dose of the peptide, subcutaneously at 1 mg/kg. Control mice received a single daily dose of vehicle.
Histopathology/Histomorphometery: Following the 12 week treatment, mice were euthanized within 48 hours after the last dose by CO2 asphyxiation and the vascular tree was perfused with 5 mL of phosphate buffered saline (pH 7.4). The aorta and aortic sinus were removed for examination. Thoracic aorta were isolated, trimmed of fat, and fixed in formalin for 48-72 hours before analysis. For en face analysis, aortas were laid out and pinned on black matrix for photography, and stained with Sudan IV. Vessels were imaged for surface involvement using a Nikon computerized image analysis system and the percent of the aortic surface area covered by lipid was calculated. Two determinations were done for each image (Quan 1 and Quan 2), and the average was computed. The data were then computed by group and statistically analyzed. Following staining and morphometric analysis, total lipids were extracted from the aortas using the Bligh-Dyer method. WAKO Diagnostics kits (WAKO Diagnostics, Inc., 1600 Bellwood Road Richmond, Va. 23237-1326) were then used to evaluate total cholesterol, free cholesterol, and cholesterol ester. Cholesterol leves were quantitate nad expressed relative to protein levels. Values are expressed as μg lipid per mg protein (see e.g., FIG. 1).

The subject of assay [2] is Apoprotein E deficient mice. Kind of assay: Total lesion area in aortic root 300 μm across aortic valve (aortic sinus cryosections, lipid staining). On the set-up: Area, total lesion area in aortic root / Area, total lesion area in aortic root, AVE: unit not given here. To be noted: 12 weeks. In kind it is in vivo.
Excerpt: as §1
The aromatic-cationic peptide D-Arg-2′6′-Dmt-Lys-Phe-NH2 (sterile lyophilized powder, reconstituted in phosphate buffered saline) was tested. […]
For the aortic sinus, the heart and approximately 5 mm of the ascending aorta was cut from the remainder of the aorta. […] The sinus was imaged at 5 step levels in the region of interest, i.e., the aortic root, for a total distance of 300 μm and the lipid-staining areas and measured (total cross sectional area) using a Nikon computerized image analysis system. The data were then computed by group and statistically analyzed.

[3] abbreviates: individual mouse, 1 mg/kg subcutaneously daily, western diet, 1 mg/kg.
The mark [4] stands for this setting: treated versus vehicle, listed as aromatic-cationic peptide.

Where “and” joins values, the source holds several entries; their conditions need not be identical. Identical values can stand only once. Entries after “also recorded” stand apart in the source; their conditions may differ.

On to D-Arg-2′6′-Dmt-Lys-Phe-NH2, for which the “Ave (average % of the surface of the aortas showing lesions)” value in assay [1] (group average of 15 test mice, 1 mg/kg subcutaneously daily) came out at 5.328%. For the same substance, the “Ave. % of Lesion” value in assay [1] (individual mouse, average of Quan 1 and Quan 2, 1 mg/kg subcutaneously daily, 1 mg/kg) is 2.615% and 0.892% and 9.027% and 3.019% and 7.009% and 4.833% and 1.996% and 1.205% and 9.948% and 2.763% and 6.814% and 4.734% and 0.834% and 11.239% and 12.990%. Further, in assay [1] (setting [3]), the “Quan 1 (first determination of % of the aortic surface covered by lipid)” value is 2.562% and 0.914% and 8.769% and 2.832% and 7.137% and 5.198% and 2.128% and 1.388% and 10.000% and 2.990% and 7.091% and 4.700% and 0.775% and 11.589% and 13.857%; the “Quan 2 (second determination of % of the aortic surface covered by lipid)” value was 2.667% and 0.870% and 9.284% and 3.205% and 6.881% and 4.468% and 1.863% and 1.021% and 9.895% and 2.536% and 6.536% and 4.768% and 0.892% and 10.888% and 12.122%. Further, the “atherosclerotic lesions in the aorta (% lesion area), in words” value in assay [1] (setting [4]) is on record as “reduces; also recorded: lower”. Moreover, in assay [2] (group average, 300 μm across aortic valve, 1 mg/kg subcutaneously daily), the “Area, total lesion area in aortic root, AVE” value came to 282.72. The “total (mean) lesion area in aortic root, in words” value in assay [2] (setting [4]) was “reduces; also recorded: lower”.

For the origin of these results see patent US10188693B2, “Methods for treatment of atherosclerosis” (Stealth BioTherapeutics Corp, priority 2012, dated 2019).
